Patent US5498624A, “Selected pyrazolyl derivatives” (Monsanto Company, priority 1995, dated 1996)

How the values were obtained:
Septoria nodorum = experiment: Wheat Glume Blotch (WGB) In Vitro; type: cell-based; design: key: 0: no inhibition of mycelial growth; 1: slight inhibition of mycelial growth; 2: moderate inhibition of mycelial growth; 3: strong inhibition of mycelial growth; details: 4-6 days at 25° C.
Experimental: A) Pathogen/Inoculum Production--The wheat glume blotch fungus, Septoria nodorum, is cultured on yeast/malt agar at 22° C. and 12 hours fluorescent light. Several sterile loops full of mature pycnidia produced on a 7 day old culture plates are added to 30 mls of 1/4 strength potato dextrose broth. After 15 minutes the suspension is stirred, and adjusted to a concentration of 3×10^5 spores/mi.
B) Compound Preparation and Test Execution--200 μl of 1/4 strength potato dextrose broth is placed in each well of a 96 well microtiter plate. […] The commercial standard used is flusilazole, at equivalent rates.
C) Inoculation/Incubation--50 μl of a 3×10^5 spores/ml suspension obtained using the method above is added to each well. The 96-well plate is incubated for 4-6 days at 25° C., 12 hours fluorescent light.
(§1) D) Evaluation--After incubation, each well is visually assessed for growth inhibition on the following 0-3 scale:
(§2) 0=no inhibition of mycelial growth
(§3) 1=slight inhibition of mycelial growth
(§4) 2=moderate inhibition of mycelial growth
(§5) 3=strong inhibition of mycelial growth

Succinate Dehydrogenase = experiment: Enzyme Inhibition I-50 (WGB): Succinate Dehydrogenase Assay using Septoria nodorum mitochondria; type: biochemical; details: DCPIP reduction, read-out: WGB enzyme I-50
Experimental: Succinate Dehydrogenase Assay using Septoria nodorum mitochondria--Septorianodorum mycelia are prepared from spores via shake culture for 40-48 hours in 3% malt extract at room temperature. The mycelia are harvested by centrifugation and the pellets obtained are stored in the -80° C. freezer until use.
Mitochondria are isolated by a method adapted from White (Biochem. Biophys. Res. Commun. 44 (1971) 1212-19). Fifteen to twenty grams of frozen mycelia are resuspended in a 250 mL medium containing 0.25M sucrose, 5 mM tetrasodium ethylenediamine tetraacetic acid (Na4 EDTA), pH 7.0 containing 1.5 g/liter bovine serum albumin (BSA) and placed in a Bead Beater chamber (BioSpec Products, Bartlesville, Okla.). Zirconium oxide beads (0.5 mm) are added to finish filling the chamber. Four 30s beats separated by 2 rain temperature equilibration periods on ice are used to break the mycelia. The homogenate is centrifuged for 20 min at 3000×g and 4° C. to remove debris. The supernatant is recentrifuged at 20,000×g for 20 min at 4° C. The resulting pellet is resuspended in BSA-free sucrose/EDTA medium (40 mL) using a glass tissue homogenizer and teflon pestle and recentrifuged at 27,000×g for 15 min at 4° C. The pellet is resuspended in BSA-free sucrose/EDTA medium (~3 mL) and used for SDH assays.
The enzyme activity is measured at […] in a solution containing 50 mM potassium phosphate, pH7.2; 1 mM potassium cyanide; 45 μM 2,6-dichlorophenol indophenol (DCPIP) and 17 mM disodium succinate in a final volume of 1 mL with a Perkin-Elmer Lambda 7 ultraviolet-visible spectrophotometer. The test compounds are added as acetone solutions (final concentration of acetone less than or equal to 1%(v/v)). The mitochondrial preparations are used to initiate the reaction. All rates are corrected for succinate-independent dye reduction. Semilog plots of percentage inhibition versus test compound concentration are used to determine inhibition expressed as I50 (μM) which is the concentration required to inhabit the rate of DCPIP reduction by 50%. The commercial fungicide carboxin is used as a standard throughout [I50 (μM)=5.0±2.2; n=52].

[1] = test system: Pseudocercosporella herpotrichoides var. tritici; experiment: Wheat True Eyespot In Vitro Assay (WES In Vitro); type: cell-based; design: key: 0: no inhibition of mycelial growth; 1: slight inhibition of mycelial growth; 2: moderate inhibition of mycelial growth; 3: strong inhibition of mycelial growth; details: 3 days at 19° C.
Experimental: A) Pathogen/Inoculum Production--A mycelial transfer of Pseudocercosporella herpotrichoides var. tritici is placed onto potato dextrose agar plates and allowed to grow for 40 days at 20 ° C., without light. Five agar discs are taken from the actively growing culture and are placed equidistant, mycelial side down, onto a water agar plate, and incubated at 10 ° C. with 10 hours of fluorescent light per day. After 5 days of incubation, sporulation on the transferred discs begins, and plates are flooded with 3-5 mls sterile deionized water. One-half ml aliquots are taken from the resulting spore suspension and placed on new water agar plates. Spores are spread across plates using a bent glass rod and incubated at 10 ° C. with 10 hour fluorescent light periods per day. In 5-10 days, a lawn of spores is produced and can be "harvested".
B) Compound Preparation and Test Execution--200 μl of 1/4 strength potato dextrose broth is placed in each well of a 96 well microtiter plate. […] The commercial standard used is prochloraz at equivalent rates.
C) Inoculation/Incubation--50 μl of a 1×10^6 spores/ml suspension harvested using the method above is added to each well. The 96 well plates are incubated for 3 days at 19° C. in the dark.
as §1, §2, §3, §4, §5

SMILES	WGB In Vitro growth inhibition 0-3 scale (Septoria nodorum; 0.1 ppm)	WGB In Vitro growth inhibition 0-3 scale (Septoria nodorum; 0.5 ppm)	WGB In Vitro growth inhibition 0-3 scale (Septoria nodorum; 5.0 ppm)	IC50 (Succinate Dehydrogenase)	WES In vitro growth inhibition 0-3 scale ([1]; 0.1 ppm)	WES In vitro growth inhibition 0-3 scale ([1]; 0.5 ppm)	WES In vitro growth inhibition 0-3 scale ([1]; 5.0 ppm)
C[C@@H]1CCC[C@H](c2ccccc2NC(=O)c2cn(C)nc2C(F)F)C1 (relative stereo) [Number 2, 1H-pyrazole-4-carboxamide, 3-(difluoromethyl)-1-methyl-N-[2-(-3-methylcyclohexyl)phenyl]-, cis-]	0	1	2	37 nM	1	2	3
C[C@H]1CCC[C@H](c2ccccc2NC(=O)c2cn(C)nc2C(F)F)C1 (relative stereo) [Number 3, 1H-pyrazole-4-carboxamide, 3-(difluoromethyl)-1-methyl-N-[2-(3-methylcyclohexyl)phenyl]-, trans-]	0	0	0	50 nM	1	2	3
Cn1cc(C(=O)Nc2ccccc2[C@@H]2CCC[C@@H](C(F)(F)F)C2)c(C(F)F)n1 (relative stereo) [Number 6]	0	0	1	520 nM	0	0	2
CC[C@H]1CC[C@@H](c2ccccc2NC(=O)c2cn(C)nc2C(F)F)CC1 [Number 1, 1H-pyrazole-4-carboxamide, 3-(difluoromethyl)-N-[2-(4-ethylcyclohexyl)phenyl]-1-methyl-, cis-]	0	3	3	15 nM	0	3	3
Cn1cc(C(=O)Nc2ccccc2[C@H]2CC[C@H](C)CC2)c(C(F)(F)F)n1 [Number 4, 1H-pyrazole-4-carboxamide, 1-methyl-N-[2-(4-methylcyclohexyl)phenyl]-3-(trifluoromethyl)-, trans-]	1	1	2	29 nM	1	2	3
Cn1cc(C(=O)Nc2ccccc2C2CCC(C)(C)CC2)c(C(F)F)n1 [Number 5, 1H-pyrazole-4-carboxamide, 3-(difluoromethyl)-N-(2-(4,4-dimethylcyclohexyl)phenyl]-1-methyl-]	0	2	2	8 nM	1	3	3
